Patent publication US7008905B2, “Method of combating undesired plant growth on cereals” (BASF Aktiengesellschaft, priority 2000, dated 2006)

Tests used:
Format in all cases: in vivo
Veronica persica = assay: Pre-emergence test, weed control; conditions: 3 weeks after treatment, rating 0-100 (100=death), Table 1
Outline: (§1)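 Using a 900 l/ha spray volume, test formulations are applied to newly sown soil at five rates from 15 to 240 g/ha. Each formulation is an acetone solution containing 0.4% w/w wetting agent, diluted with water; visual 0–100 ratings follow at three weeks.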

Apera spica-venti = assay: Pre-emergence test, weed control; conditions: 3 weeks after treatment, rating 0-100 (100=death), Table 1
Outline: as §1

Alopecurus myosuroides = assay: Pre-emergence test, weed control; conditions: 3 weeks after treatment, rating 0-100 (100=death), Table 1
Outline: as §1

Polygonum convolvulus [1] = assay: Pre-emergence test, weed control; conditions: 3 weeks after treatment, rating 0-100 (100=death), Table 1
Outline: as §1

Stellaria media = assay: Pre-emergence test, weed control; conditions: 3 weeks after treatment, rating 0-100 (100=death), Table 1
Outline: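 Herbicidal effect was scored visually on a 0–100 scale (100 = death, 0 = untreated-like) three weeks after treatment. Soil was horticultural loam sprayed just after sowing with aqueous-diluted acetone/0.4% TRITON X-155 formulations at 15–240 g a.i./ha (900 L/ha).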

Matricaria inodora = assay: Pre-emergence test, weed control; conditions: 3 weeks after treatment, rating 0-100 (100=death), Table 1
Outline: as §1

Galium aparine [2] = assay: Pre-emergence test, weed control; conditions: 3 weeks after treatment, rating 0-100 (100=death), Table 1
Outline: as §1

Poa annua = assay: Pre-emergence test, weed control; conditions: 3 weeks after treatment, rating 0-100 (100=death), Table 1
Outline: as §1

Lamium purpureum = assay: Pre-emergence test, weed control; conditions: 3 weeks after treatment, rating 0-100 (100=death), Table 1
Outline: as §1

Lolium perenne = assay: Pre-emergence test, weed control; conditions: 3 weeks after treatment, rating 0-100 (100=death), Table 1
Outline: as §1

Setaria viridis [3] = assay: Pre-emergence test, weed control; conditions: 3 weeks after treatment, rating 0-100 (100=death), Table 1
Outline: as §1

[4] = tested on: Triticum aestivum variety “Kanzler”; assay: Pre-emergence test, selectivity; conditions: 3 weeks after treatment, rating 0-100 (100=death), Table 2
Outline: as §1

[5] = tested on: Triticum aestivum variety “Monopol”; assay: Pre-emergence test, selectivity; conditions: 3 weeks after treatment, rating 0-100 (100=death), Table 2
Outline: as §1

[6] = tested on: Hordeum vulgare variety “Mammut”; assay: Pre-emergence test, selectivity; conditions: 3 weeks after treatment, rating 0-100 (100=death), Table 2
Outline: as §1

HORVW = assay: Pre-emergence test, selectivity; conditions: 3 weeks after treatment, rating 0-100 (100=death), Table 2
Outline: as §1

Polygonum convolvulus [7] = assay: Post-emergence test, weed control; conditions: 2–4 weeks after treatment, rating 0-100 (100=death), Table 5
Description: (§2) These acetone solutions are diluted with water and the resulting formulations applied at dosage levels equivalent of about 0.030 to 0.240 kg per hectare of test compound per pot. After spraying the plants are placed an greenhouse benches and are cared for in the usual manner, commensurate with conventional greenhouse practices. From 2 to 4 weeks after treatment, the seedling plants are examined and rated according to the rating system provided above. A rating 0 indicates growth as untreated control, a rating 100 indicates death.

Galium aparine [8] = assay: Post-emergence test, weed control; conditions: 2–4 weeks after treatment, rating 0-100 (100=death), Table 5
Description: as §2

VIOAR = assay: Post-emergence test, weed control; conditions: 2–4 weeks after treatment, rating 0-100 (100=death), Table 5
Description: as §2

Setaria viridis [9] = assay: Post-emergence test, weed control; conditions: 2–4 weeks after treatment, rating 0-100 (100=death), Table 5
Description: as §2

## Cc1cnc(-c2ccc(C(F)(F)F)cc2)nc1Oc1cccc(C(F)(F)F)c1 [REF-1]
Veronica persica; 0.015 kg/ha
  VERPE weed control rating: 100
Veronica persica; 0.030 kg/ha
  VERPE weed control rating: 100
Veronica persica; 0.060 kg/ha
  VERPE weed control rating: 100
Veronica persica; 0.1 kg/ha
  VERPE weed control rating: 100
Veronica persica; 0.240 kg/ha
  VERPE weed control rating: 100
Apera spica-venti; 0.015 kg/ha
  APESV weed control rating: 100
Apera spica-venti; 0.030 kg/ha
  APESV weed control rating: 100
Apera spica-venti; 0.060 kg/ha
  APESV weed control rating: 100
Apera spica-venti; 0.1 kg/ha
  APESV weed control rating: 100
Apera spica-venti; 0.240 kg/ha
  APESV weed control rating: 100
Alopecurus myosuroides; 0.015 kg/ha
  ALOMY weed control rating: 65
Alopecurus myosuroides; 0.030 kg/ha
  ALOMY weed control rating: 92
Alopecurus myosuroides; 0.060 kg/ha
  ALOMY weed control rating: 100
Alopecurus myosuroides; 0.1 kg/ha
  ALOMY weed control rating: 100
Alopecurus myosuroides; 0.240 kg/ha
  ALOMY weed control rating: 100
Polygonum convolvulus [1]; 0.015 kg/ha
  POLCO weed control rating: 92
Polygonum convolvulus [1]; 0.030 kg/ha
  POLCO weed control rating: 93
Polygonum convolvulus [1]; 0.060 kg/ha
  POLCO weed control rating: 100
Polygonum convolvulus [1]; 0.1 kg/ha
  POLCO weed control rating: 100
Polygonum convolvulus [1]; 0.240 kg/ha
  POLCO weed control rating: 100
Stellaria media; 0.030 kg/ha
  STEME weed control rating: 90
Stellaria media; 0.060 kg/ha
  STEME weed control rating: 100
Stellaria media; 0.1 kg/ha
  STEME weed control rating: 100
Stellaria media; 0.240 kg/ha
  STEME weed control rating: 100
Matricaria inodora; 0.015 kg/ha
  MATIN weed control rating: 99
Matricaria inodora; 0.030 kg/ha
  MATIN weed control rating: 99
Matricaria inodora; 0.060 kg/ha
  MATIN weed control rating: 100
Matricaria inodora; 0.1 kg/ha
  MATIN weed control rating: 100
Matricaria inodora; 0.240 kg/ha
  MATIN weed control rating: 100
Galium aparine [2]; 0.015 kg/ha
  GALAP weed control rating: 5
Galium aparine [2]; 0.030 kg/ha
  GALAP weed control rating: 15
Galium aparine [2]; 0.060 kg/ha
  GALAP weed control rating: 50
Galium aparine [2]; 0.1 kg/ha
  GALAP weed control rating: 75
Galium aparine [2]; 0.240 kg/ha
  GALAP weed control rating: 95
Poa annua; 0.015 kg/ha
  POAAN weed control rating: 98
Poa annua; 0.030 kg/ha
  POAAN weed control rating: 100
Poa annua; 0.060 kg/ha
  POAAN weed control rating: 100
Poa annua; 0.1 kg/ha
  POAAN weed control rating: 100
Poa annua; 0.240 kg/ha
  POAAN weed control rating: 100
Lamium purpureum; 0.015 kg/ha
  LAMPU weed control rating: 100
Lamium purpureum; 0.030 kg/ha
  LAMPU weed control rating: 100
Lamium purpureum; 0.060 kg/ha
  LAMPU weed control rating: 100
Lamium purpureum; 0.1 kg/ha
  LAMPU weed control rating: 100
Lamium purpureum; 0.240 kg/ha
  LAMPU weed control rating: 100
Lolium perenne; 0.015 kg/ha
  LOLPE weed control rating: 80
Lolium perenne; 0.030 kg/ha
  LOLPE weed control rating: 95
Lolium perenne; 0.060 kg/ha
  LOLPE weed control rating: 99
Lolium perenne; 0.1 kg/ha
  LOLPE weed control rating: 100
Lolium perenne; 0.240 kg/ha
  LOLPE weed control rating: 100
Setaria viridis [3]; 0.015 kg/ha
  SETVI weed control rating: 93
Setaria viridis [3]; 0.030 kg/ha
  SETVI weed control rating: 100
Setaria viridis [3]; 0.060 kg/ha
  SETVI weed control rating: 100
Setaria viridis [3]; 0.1 kg/ha
  SETVI weed control rating: 100
Setaria viridis [3]; 0.240 kg/ha
  SETVI weed control rating: 100
[4]; 0.015 kg/ha
  TRZAWK rating (Selectivity): 3
[4]; 0.030 kg/ha
  TRZAWK rating (Selectivity): 10
[4]; 0.060 kg/ha
  TRZAWK rating (Selectivity): 25
[4]; 0.120 kg/ha
  TRZAWK rating (Selectivity): 25
[4]; 0.240 kg/ha
  TRZAWK rating (Selectivity): 40
[5]; 0.015 kg/ha
  TRZAWM rating (Selectivity): 3
[5]; 0.030 kg/ha
  TRZAWM rating (Selectivity): 12
[5]; 0.060 kg/ha
  TRZAWM rating (Selectivity): 25
[5]; 0.120 kg/ha
  TRZAWM rating (Selectivity): 30
[5]; 0.240 kg/ha
  TRZAWM rating (Selectivity): 45
[6]; 0.015 kg/ha
  HORVWM rating (Selectivity): 25
[6]; 0.030 kg/ha
  HORVWM rating (Selectivity): 45
[6]; 0.060 kg/ha
  HORVWM rating (Selectivity): 45
[6]; 0.120 kg/ha
  HORVWM rating (Selectivity): 60
[6]; 0.240 kg/ha
  HORVWM rating (Selectivity): 65
HORVW; 0.015 kg/ha
  HORVW rating (Selectivity): 35
HORVW; 0.030 kg/ha
  HORVW rating (Selectivity): 45
HORVW; 0.060 kg/ha
  HORVW rating (Selectivity): 55
HORVW; 0.120 kg/ha
  HORVW rating (Selectivity): 60
HORVW; 0.240 kg/ha
  HORVW rating (Selectivity): 65
Polygonum convolvulus [7]; 0.030 kg/ha
  POLCO weed control rating: 15
Polygonum convolvulus [7]; 0.120 kg/ha
  POLCO weed control rating: 25
Polygonum convolvulus [7]; 0.240 kg/ha
  POLCO weed control rating: 70
Galium aparine [8]; 0.030 kg/ha
  GALAP weed control rating: 80
Galium aparine [8]; 0.060 kg/ha
  GALAP weed control rating: 85
Galium aparine [8]; 0.120 kg/ha
  GALAP weed control rating: 92
Galium aparine [8]; 0.240 kg/ha
  GALAP weed control rating: 92
VIOAR; 0.030 kg/ha
  VIOAR weed control rating: 92
VIOAR; 0.060 kg/ha
  VIOAR weed control rating: 93
VIOAR; 0.120 kg/ha
  VIOAR weed control rating: 93
VIOAR; 0.240 kg/ha
  VIOAR weed control rating: 95
Setaria viridis [9]; 0.030 kg/ha
  SETVI weed control rating: 99
Setaria viridis [9]; 0.060 kg/ha
  SETVI weed control rating: 99
Setaria viridis [9]; 0.120 kg/ha
  SETVI weed control rating: 100
Setaria viridis [9]; 0.240 kg/ha
  SETVI weed control rating: 100
